“Also recorded” adds a separate entry of the source.
Experiments:
p53-target genes [1] = experiment: RT-qPCR of p53-target genes in NCI-H1299 p53Y220C stable cells; assay type: cell-based; settings: 10 μM, 24 h; for increase in p21 mRNA expression: relative to DMSO
[2] = tested on: p53 WT U-2OS cancer cells; experiment: Cell viability assay; assay type: cell-based; settings: 72 h; for inhibition of cell growth at the highest concentration tested: 10 μM
[3] = tested on: NUGC-3 (p53Y220C/+) cells; settings: 72 h
BxPC3 (p53Y220C/−) cells = settings: for GI50: 72 h
NCI-H1299 p53-null cells [4] = experiment: Western blot of p53K382ac level in NCI-H1299 p53-null cells; assay type: cell-based; settings: 0, 1, 3, 10 μM, 24 h
PNT2 cells = experiment: Cytotoxicity in normal prostate cell line PNT2; assay type: cell-based; settings: read-out: GI50 (cytotoxicity)
NCI-H1299 p53-null cells [5] = experiment: Cell viability assay; assay type: cell-based; settings: 72 h
p53Y220C [6] = molecular target: T1, p53Y220C (Homo sapiens, UniProt P04637, Y220C); settings: cited from earlier work
p53Y220C [7] = molecular target: T1, p53Y220C; experiment: Western blot / FLAG-IP of p53K382ac level in NCI-H1299; assay type: cell-based
p53-target genes [8] = experiment: RNA-seq in NCI-H1299 p53-null and p53Y220C cells; assay type: cell-based, human; settings: 10 μM, 24 h
[9] = tested on: other bromodomain-containing proteins; experiment: BromoMelt profiling against other bromodomain-containing proteins; settings: 10 μM, duplicates
BxPC3 cells = experiment: Clonogenic assay, BxPC3; assay type: cell-based; settings: 1, 3, 10 μM, 14 days; compared to PK9328 and compound 33
NUGC-3 cells = experiment: Clonogenic assay, NUGC-3; assay type: cell-based; settings: 1, 3, 10 μM, 14 days; compared to PK9328 and compound 33
p53Y220C [10] = molecular target: T1, p53Y220C; experiment: Western blot of p53K382ac level in BxPC3 cells; assay type: cell-based; settings: 10 μM, 24 h
p53Y220C [11] = molecular target: T1, p53Y220C; experiment: Western blot of p53K382ac level in NUGC-3 cells; assay type: cell-based; settings: 10 μM, 24 h
p53Y220C and p300 = p53Y220C and p300 (Homo sapiens, UniProt P04637+Q09472, Y220C); experiment: p53-FLAG pull-down of p53Y220C-p300 ternary complex; assay type: cell-based; settings: 24 h
[12] = p300-siRNA 72 h, then compound 72 h

Compound: CCn1c2ccc(CNC)cc2c2ccc(-c3cc(C)cs3)cc21 [PK9328, reference compound]
- effect on TIGAR, BAX, and PUMA (BBC3) genes (p53-target genes [1]): little or modest effect
- expression of p21 (CDKN1A) and Mdm2 genes (p53-target genes [1]): upregulated
- increase in p21 mRNA expression (p53-target genes [1]): 12 fold
- inhibition of cell growth at the highest concentration tested [2]: 30–40%
- GI50 [2]: > 10 µM
- GI50 [3]: 12.6 ± 1.9 µM
- GI50 (BxPC3 (p53Y220C/−) cells): 13.9 ± 2.4 µM
- K382 acetylation (NCI-H1299 p53-null cells [4]): did not significantly induce K382 acetylation
- reduction in the cell growth in p300-siRNA-treated cells (NCI-H1299 p53Y220C cells; [12]): about 50%
- GI50 (PNT2 cells): > 10 µM
- cell growth inhibition (NCI-H1299 p53-null cells [5]): did not induce any significant cell growth inhibition

Compound: CCn1c2ccc(CNC)cc2c2ccc(-c3cscn3)cc21 [PK9323]
- stabilizes p53Y220C with a melting temperature (Tm) (p53Y220C [6]): 3.1 °C

Compound: CCn1c2ccc(CNCCOCCOCCOCCn3cc(COc4ccc(CCc5nc6cc(-c7c(C)noc7C)ccc6n5CCN5CCOCC5)cc4F)nn3)cc2c2ccc(-c3cc(C)cs3)cc21 [MS78]
- effect on TIGAR, BAX, and PUMA (BBC3) genes (p53-target genes [1]): little or modest effect
- expression of p21 (CDKN1A) and Mdm2 genes (p53-target genes [1]): less upregulation
- increase in p21 mRNA expression (p53-target genes [1]): 8 fold
- K382 acetylation (p53Y220C [7]; 0, 1, 3, 10 μM, 24 h, NCI-H1299 p53Y220C): significantly induced K382 acetylation
- increase in p53K382ac level (p53Y220C [7]; 10 μM, 6 h): about 2 fold
- increase in p53K382ac level (p53Y220C [7]; 10 μM, 24 h): about 4 fold
- p53K382ac induction compared to compound 7 (p53Y220C [7]; 10 μM, 24 h): about 2 fold
- p53Y220C K382 acetylation in p300 siRNA-treated cells (p53Y220C [7]; p300 knockdown, NCI-H1299 (p53Y220C)): significantly diminished; also recorded: abolished
- EC50 (p53Y220C [7]; read-out: ACE50 (the concentration at which 50% of p53Y220C is acetylated), 24 h, acetylation level at 10 μM MS78 as the maximum response): 1.87 ± 0.3 µM
- inhibition of cell growth at the highest concentration tested [2]: 30–40%
- GI50 [2]: > 10 µM
- expression of BAX, PUMA (BBC3), and NOXA (PMAIP1) genes (p53-target genes [8]): no significant upregulation
- expression of DDR genes such as ATM, ATR, and CHEK1/2 (p53-target genes [8]): downregulation
- expression of heat shock protein genes such as HSPA5, HSP40 (DNAJB1), HSP1A1/B (p53-target genes [8]): upregulation
- selectivity over a panel of other BRD-containing proteins [9]: selective for the CBP/p300 BRD
- GI50 [3]: 2.7 ± 0.5 µM
- clonogenicity (BxPC3 cells): marked reduction in clonogenicity
- clonogenicity (NUGC-3 cells): marked reduction in clonogenicity
- GI50 (BxPC3 (p53Y220C/−) cells): 3.3 ± 1 µM
- higher potency compared to the parent compound PK9328 (BxPC3 (p53Y220C/−) cells; GI50 in BxPC3 and NUGC-3): about 4 fold
- increase in the p53K382ac level (p53Y220C [10]): about 4 fold
- K382 acetylation (NCI-H1299 p53-null cells [4]): did not induce K382 acetylation
- cell growth inhibition (NCI-H1299 p53Y220C cells; 72 h): concentration-dependently inhibited the cell growth
- antiproliferative effect after knockdown of p300 (NCI-H1299 p53Y220C cells; [12]): abolished the antiproliferative effect
- GI50 (PNT2 cells): > 10 µM
- cell growth inhibition (NCI-H1299 p53-null cells [5]): did not induce any significant cell growth inhibition
- increase in the p53K382ac level (p53Y220C [11]): about 4 fold
- p53-p300 interaction (FLAG pull-down) (p53Y220C and p300; NCI-H1299 p53-null cells): no interaction was observed
- p53Y220C-p300 interaction (FLAG pull-down) (p53Y220C and p300; NCI-H1299 p53Y220C cells): induced an interaction between p53Y220C and p300
